The test deals with T1, FAAH (Homo sapiens, UniProt O00519).
T1 construct: The full length FAAH was subcloned into the mammalian expression vector, pcDEF.neo; expressed in transfected cells; cDNA from Origene
T1 sequence (O00519 1-579): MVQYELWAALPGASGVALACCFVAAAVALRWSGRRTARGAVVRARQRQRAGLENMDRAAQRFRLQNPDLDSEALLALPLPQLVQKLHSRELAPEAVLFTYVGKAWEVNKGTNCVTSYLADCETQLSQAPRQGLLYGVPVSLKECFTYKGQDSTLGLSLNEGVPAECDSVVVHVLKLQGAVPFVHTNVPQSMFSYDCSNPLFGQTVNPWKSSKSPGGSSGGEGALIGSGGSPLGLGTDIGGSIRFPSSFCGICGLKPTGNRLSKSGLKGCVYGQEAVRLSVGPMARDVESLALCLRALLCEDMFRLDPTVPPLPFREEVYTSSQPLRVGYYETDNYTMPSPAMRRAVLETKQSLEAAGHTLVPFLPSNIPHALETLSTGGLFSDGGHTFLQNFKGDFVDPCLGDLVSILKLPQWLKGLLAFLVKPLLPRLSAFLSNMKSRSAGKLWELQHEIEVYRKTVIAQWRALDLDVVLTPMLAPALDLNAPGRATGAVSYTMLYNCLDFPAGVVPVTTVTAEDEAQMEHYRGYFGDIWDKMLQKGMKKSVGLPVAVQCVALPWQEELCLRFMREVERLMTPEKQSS
In words: FAAH enzyme assay, lysate of CHO cells expressing human FAAH. The format is biochemical. The settings on record: cell lysate, read-out: FAAH Human Cell Lysate IC50. An excerpt: To assist in assay development stable cell lines for human, murine and rat full length FAAH were developed. Human FAAH cDNA (Accession No: NM_001441.1) was purchased from Origene (Rockville, Md.). The full length FAAH was subcloned into the mammalian expression vector, pcDEF.neo, using XbaI and […] restriction sites and used for stable cell line generation.
CHO cells expressing FAAH were used to prepare either crude cell lysate or microsome fractions. To harvest cells, tissue culture media was decanted, the monolayer washed three times with Ca^++Mg^++ free PBS and cells recovered after 15 min in enzyme free dissociation media (Millipore Corp, Billerica, Mass.). Cells were collected by centrifuging at 2000 rpm for 15 min. and the cell pellet re-suspended with 50 mM HEPES (pH 7.4) containing 1 mM EDTA and the protease inhibitors aprotinin (1 mg/ml) and leupeptin (100 μM). The suspension was sonicated at 4° C. and the cell lysate recovered after centrifuging at 12,000×g (14,600 rpm, SS34 rotor) for 20 min at 4° C. to form a crude pellet of cell debris, nuclei, peroxisomes, lysosomes, and mitochondria; the supernatant or cell lysate was used for FAAH enzyme assay. In some cases, microsomes fractions enriched in FAAH were prepared by centrifuging the cell lysate further at 27,000 rpm (100,000×g) in SW28 rotor for 50 minutes at 4° C. The pellet containing FAAH-enriched microsomes was re-suspend in 50 mM HEPES, (pH 7.4) 1 mM EDTA, and any remaining DNA sheared by passage of material through a 23 gauge needle and aliquots of enzyme were store at −80° C. prior to use.
(American Radiolabeled Chemicals; 1 mCi/ml) with FAAH (Life Sciences (1995), 56, 1999-2005 and Journal of Pharmacology and Experimented Therapeutics (1997), 283, 729-734), Analytical. Biochemistry (2003), 318, 270-5. In addition, routine assays were performed monitoring hydrolysis of arachidonyl-7-amino-4-methylcoumarin amide (AAMCA) by following increase in fluorescence upon release of 7-amino 4-methyl coumarin (λEX=355 nm, (λEM=460 nm). Analytical. Biochemistry (2005). 343, 143-51.
Assays are performed on either cell lysate or microsome fractions prepared as described or in whole cell format employing either the fluorescent substrate AAMCA (Cayman chemical, Ann Arbor, Mich.,) or ^3H-anandmaide ([ETHANOLAMINE-1-3H]American Radiolabeled Chemicals; 1 mCi/ml). The cell lysate or microsome assay is performed in Costar black wall, clear bottom plates by adding FAAH_CHO (whole cell, cell lysate or microsome) in assay buffer (50 mM Phosphate, pH 8.0, 1 mM EDTA, 200 mM KCl, 0.2% glycerol, 0.1% fatty acid free BSA) to each well, followed by either DMSO or compound and allowed to incubate at 22-25° C. for fifteen minutes. AAMCA substrate was used to achieve a final concentration of 1 μM and reaction allowed to proceed at room temperature for 1-3 hours. Fluorescent release as a measure of FAAH activity was monitored by reading the plate in a CytoFluor Multiplate Reader ([…]). Whole cell assay is conducted with cells harvested after rinsing tissue culture flasks three times with Ca^++Mg^++ free PBS, incubating for 10 mm in Enzyme free dissociation media and centrifuging for 5 minutes at 1,000 rpm in table top centrifuge. Cells are resuspended in assay buffer at desired cell number in (4×10^4 cells/assay in 96-well format; 1×10^4 cells/assay in 384-well format) and assayed as described.
Alternatively, assays are performed using anandamide [ethanolamine 1-^3H] (specific activity of 10 Ci/mmol) diluted with cold anandamide to achieve a final assay concentration of 1 μM anandamide (˜50,000 cpm). Enzyme (CHO cell lysate, brain or liver homogenate) is incubated in assay buffer (50 mM Phosphate, pH 8.0, 1 mM EDTA, 200 mM KCl, 0.2% glycerol, 0.1% fatty acid free BSA) with inhibitor at 25° C. for 30 minutes. The reaction was terminated by addition of 2 volumes of chloroform:methanol (1:1) and mixed by vortexing. […]
With `CCn1cc(-n2cc(Sc3ccc(Cl)cc3)c(-c3ccc4c(=O)[nH]cnc4c3)n2)cn1` [Example 347], the IC50 was 12 nM.

Turning to `NC(=O)c1ccc2cc(-c3nn(C4CC4)cc3Sc3ccc(Cl)cn3)ccc2n1` [Example 396], the IC50 was determined as 14.8 nM.

As to `CCC(=O)N1CCc2cc(-c3n[nH]cc3Sc3ccc(Cl)cc3)ccc2C1` [Example 376], the IC50 was 168 nM.

Consider `CCn1cc(-n2cc(Sc3ccc(Cl)cc3)c(-c3ccc4c(=O)n(-c5cnn(CC)c5)cnc4c3)n2)cn1` [Example 348], for which the IC50 was found to be 36 nM.

On to `CCn1cc(-n2cc(Sc3ccc(Cl)cc3)c(-c3ccc4c(c3)CCNC4=O)n2)cn1` [Example 344], for which the concentration for half-maximal inhibition (IC50) was 16 nM.

For `CCNC(=O)c1cnc2cc(-c3nn(CCF)cc3Sc3ccc(Cl)cc3)ccc2c1` [Example 394], the IC50 is 15 nM.

For `CN(C)C(=O)c1ccc2cc(-c3nn(C4CC4)cc3Sc3ccc(Cl)cc3)ccc2n1` [Example 400], the IC50 was determined as 39 nM.

For the compound `CCOC(=O)c1ccc2cc(-c3n[nH]cc3Sc3ccc(Cl)cn3)ccc2n1` [Example 398], the IC50 worked out at 0.77 nM.

As for `O=C1NCCc2cc(-c3nn(-c4ccccn4)cc3Sc3ccc(Cl)cc3)ccc21` [Example 335], the IC50 was 8 nM.

Take `CCOC(=O)c1cnc2cc(-c3n[nH]cc3Sc3ccc(Cl)cc3)cnc2c1` [Example 387]: the IC50 came to 14 nM.

For `O=c1[nH]cnc2cc(-c3nn(-c4ccc(F)cc4)cc3Sc3ccc(Cl)cc3)ccc12` [Example 313, 7-{4-[(4-chlorophenyl)sulfanyl]-1-(4-fluorophenyl)-1H-pyrazol-3-yl}quinazolin-4(3H)-one], the IC50 turned out to be 8.7 nM.

On to `Fc1ccc(-n2cc(Sc3ccc(Cl)cc3)c(-c3ccc4nc(C(F)F)ccc4c3)n2)cc1` [Example 380], for which the IC50 was 24 nM.

For the compound `O=C1NCCc2cc(-c3n[nH]cc3Sc3ccc(Cl)cc3)ccc21` [Example 310, 6-{4-[(4-chlorophenyl)sulfanyl]-1H-pyrazol-3-yl}-3,4-dihydroisoquinolin-1(2H)-one], the IC50 worked out at 72 nM.

On to `O=C1NCCc2cc(-c3nn(CCF)cc3Sc3ccc(Cl)cc3)ccc21` [Example 311], for which the IC50 amounted to 91 nM.

As to `CCN1CCc2cc(-c3nn(-c4ccc(F)cc4)cc3Sc3ccc(Cl)cc3)ccc2C1=O` [Example 309, 6-{4-[(4-chlorophenyl)sulfanyl]-1-(4-fluorophenyl)-1H-pyrazol-3-yl}-2-ethyl-3,4-dihydroisoquinolin-1(2H)-one], the IC50 was found to be 16 nM.

As for `Cn1cc(Sc2ccc(Cl)cc2)c(-c2ccc3nc(C(N)=O)ccc3c2)n1` [Example 353], the IC50 came to 0.47 nM.

With `O=C1CCc2cc(-c3nn(-c4ccccn4)cc3Sc3ccc(Cl)cc3)ccc2N1CCF` [Example 346], the IC50 turned out to be 15 nM.

For `CCOC(=O)c1cnc2cc(-c3nn(CCF)cc3Sc3ccc(Cl)cc3)ccc2c1` [Example 371], the IC50 was 4 nM.

On to `CCN1CCc2cc(-c3nn(CC)cc3Sc3ccc(Cl)cc3)ccc2C1=O` [Example 340], for which the concentration for half-maximal inhibition (IC50) was found to be 25 nM.

Regarding `FC(F)c1ccc2cc(-c3nn(C4CC4)cc3Sc3ccc(Cl)cc3)ccc2n1` [Example 381], the IC50 worked out at 9.5 nM.

In the case of `FC(F)c1ccc2cc(-c3nn(C4CC4)cc3Sc3ccc(Cl)cn3)ccc2n1` [Example 383], the 50% inhibitory concentration (IC50) amounted to 29 nM.

Consider `O=c1[nH]cnc2cc(-c3n[nH]cc3Sc3ccc(Cl)cc3)ccc12` [Example 312, 7-{4-[(4-chlorophenyl)sulfanyl]-1H-pyrazol-3-yl}-quinazolin-4(3H)-one], for which the 50% inhibitory concentration (IC50) amounted to 228 nM.

Consider `Clc1ccc(Sc2cn(C3CC3)nc2-c2ccc3nc(Cl)ccc3c2)cc1` [Example 386], for which the half-inhibitory concentration (IC50) came to 94 nM.

Turning to `CCNC(=O)c1ccc2cc(-c3nn(CC4CC4)cc3Sc3ccc(Cl)cc3)ccc2n1` [Example 369], the IC50 was found to be 1.6 nM.

For `O=C1NCCc2cc(-c3nn(-c4ccc(F)cc4)cc3Sc3ccc(Cl)cc3)ccc21` [Example 308, 6-{4-[(4-chlorophenyl)sulfanyl]-1-(4-fluorophenyl)-1H-pyrazol-3-yl}-3,4-dihydroisoquinolin-1(2H)-one], the IC50 stood at 18 nM.

On to `CN(C)C(=O)c1ccc2cc(-c3nn(C4CC4)cc3Sc3ccc(Cl)cn3)ccc2n1` [Example 331, 6-{4-[(5-chloropyridin-2-yl)sulfanyl]-1-cyclopropyl-1H-pyrazol-3-yl}-N,N-dimethylquinoline-2-carboxamide], for which the IC50 came out at 77 nM.

Regarding `CC(=O)N1CCc2cc(-c3n[nH]cc3Sc3ccc(Cl)cc3)ccc2C1` [Example 359], the IC50 is 101 nM.

For `CCNC(=O)c1ccc2cc(-c3n[nH]cc3Sc3ccc(Cl)cc3)ccc2n1` [Example 355], the IC50 came to 1.38 nM.

Regarding `CN(C)C(=O)c1ccc2cc(-c3nn(C4CC4)cc3Sc3ncc(Cl)cn3)ccc2n1` [Example 401], the IC50 stood at 291 nM.

`CC(=O)N1CCc2cc(-c3nn(C(C)C)cc3Sc3ccc(Cl)cc3)ccc2C1` [Example 377]: the IC50 was found to be 33 nM.

For the compound `OC(c1ccc2cc(-c3nn(CCF)cc3Sc3ccc(Cl)cc3)ccc2n1)C(F)(F)F` (centres unmarked) [Example 373], the IC50 turned out to be 49 nM.

As to `OCc1ccc2cc(-c3nn(CCF)cc3Sc3ccc(Cl)cc3)ccc2n1` [Example 372], the 50% inhibitory concentration (IC50) came out at 30 nM.

Turning to `CC(=O)N1CCc2cc(-c3nn(C4CC4)cc3Sc3ccc(Cl)cc3)ccc2C1` [Example 360], the IC50 came out at 9.8 nM.

In the case of `CC(=O)N1CCc2cc(-c3nn(CCF)cc3Sc3ccc(Cl)cc3)ccc2C1` [Example 362], the IC50 was determined as 48 nM.

Take `N#Cc1ccc2cc(-c3nn(C4CC4)cc3Sc3ccc(Cl)cn3)ccc2n1` [Example 397]: the concentration for half-maximal inhibition (IC50) amounted to 172 nM.

Take `CC(C)(O)c1ccc(-c2nn(-c3ccc(F)cn3)cc2Sc2ccc(Cl)cc2)nn1` [Example 349]: the IC50 was determined as 59 nM.

As to `CCNC(=O)c1ccc2cc(-c3nn(C(C)C)cc3Sc3ccc(Cl)cc3)ccc2n1` [Example 368], the IC50 was determined as 24 nM.

As for `CCn1cc(Sc2ccc(Cl)cc2)c(-c2ccc3c(c2)CCN(CCF)C3=O)n1` [Example 341], the IC50 stood at 47 nM.

Turning to `CCNC(=O)c1ccc2cc(-c3nn(CC(C)C)cc3Sc3ccc(Cl)cc3)ccc2n1` [Example 370], the IC50 was 12 nM.

As to `CCNC(=O)c1ccc2cc(-c3nn(CC(F)F)cc3Sc3ccc(Cl)cc3)ccc2n1` [Example 367], the IC50 is 20 nM.

With `CCOC(=O)c1cnc2cc(-c3nn(CCF)cc3Sc3ccc(Cl)cc3)cnc2c1` [Example 393], the IC50 is 16 nM.

The values above are taken from patent US20110144056A1, “PYRAZOLE DERIVATIVES USEFUL AS INHIBITORS OF FAAH” (priority 2008, published 2011).
